Key:
[1] = test system: Sult in FVB mouse liver S9 fraction; experiment: Sult activity measurements; type: in vitro ADME
[2] = Chemical stability of the tested compounds in potassium phosphate buffer; type: physicochemical; conditions: 50 mM potassium phosphate buffer (pH 7.4) at 37°C with 0.1% vitamin C
Ugt = Ugt activity measurements; conditions: male, FVB, mouse, liver S9 fraction, pH 7.4
Sult = Sult activity measurements; type: in vitro ADME, mouse; conditions: male, FVB, mouse, liver S9 fraction, pH 7.4
Sult and Ugt = experiment: Sult-Ugt co-reaction system; type: in vitro ADME; conditions: male, FVB, mouse, liver S9 fraction
[3] = test system: Ugt in FVB mouse liver S9 fraction; conditions: male, 10 µM, pH 7.4
[4] = test system: SULTs in human liver and duodenum S9 fractions; conditions: cited from earlier work
[5] = 10 µM substrate, Sult single reaction, FVB mice liver S9 fraction, n=3

Row | Compound | sulfation rate [1, 5] | time stable in buffer (chemical stability) [2] | also measured
1 | O=c1cc(-c2cccc(O)c2)oc2ccccc12 [3’-HF, 3’-hydroxyflavone] | 0.0312 ± 0.0095 nmol per min per mg of protein | 30 to 90 min | –
2 | O=c1c(O)c(-c2ccccc2)oc2ccccc12 [3-HF, 3-hydroxyflavone] | 0.00 ± 0.00 nmol per min per mg of protein | 30 to 90 min | sulfation by FVB mice liver S9 fraction (in words) ([1]; 5, 10 and 40 µM substrate, Sult single reaction): not sulfated
3 | O=c1cc(-c2ccccc2)oc2cccc(O)c12 [5-HF, 5-hydroxyflavone] | – | – | sulfation rate ([1]; male, FVB, mouse, 10 µM, pH 7.4): 0.0524 ± 0.0019 nmol per min per mg of protein
4 | O=c1cc(-c2ccccc2)oc2cc(O)c(O)cc12 [6,7-diHF, 6,7-dihydroxyflavone] | – | – | half-life at 10 µM (Ugt): 26.8 ± 1.32 min; half-life at 10 µM (Sult): 244 ± 36.8 min; half-life at 10 µM (Sult and Ugt): 21.2 ± 2.03 min
5 | O=c1cc(-c2ccccc2O)oc2ccccc12 [2’-HF, 2’-hydroxyflavone] | 0.0719 ± 0.0030 nmol per min per mg of protein | 30 to 90 min | –
6 | O=c1c(O)c(-c2ccc(O)cc2)oc2ccccc12 [3,4’-diHF, 3,4’-dihydroxyflavone] | – | 30 to 90 min | –
7 | O=c1cc(-c2ccccc2)oc2ccc(O)cc12 [6-HF, 6-hydroxyflavone] | 0.0211 ± 0.0002 nmol per min per mg of protein | 30 to 90 min | –
8 | O=c1cc(-c2ccccc2)oc2cc(O)cc(O)c12 [5,7-diHF, 5,7-dihydroxyflavone] | – | – | glucuronidation rate, 5-O-G [3]: 0.00 ± 0.00 nmol per min per mg of protein; glucuronidation rate, 7-O-G [3]: 1.0763 ± 0.0399 nmol per min per mg of protein; formation rate of 7-O-sulfate ([1]; male, FVB, mouse, 5 µM, pH 7.4): 0.0387 ± 0.0025 nmol per min per mg of protein
9 | O=c1cc(-c2ccc(O)cc2)oc2ccccc12 [4’-HF, 4’-hydroxyflavone] | 0.0793 ± 0.0031 nmol per min per mg of protein | 30 to 90 min | –
10 | O=c1cc(-c2ccccc2)oc2cc(O)ccc12 [7-HF, 7-hydroxyflavone] | 0.0998 ± 0.0061 nmol per min per mg of protein | 30 to 90 min | sulfation by SULTs (in words) [4]: sulfated

— article PMC3409651 (Journal of agricultural and food chemistry, 2012)
